Legend:
[1] = system: 3T3-L1 Mouse Adipocytes; assay: Free fatty acid levels in cultured 3T3-L1 mouse adipocytes (isoproterenol stimulated); assay type: cell-based; conditions: free fatty acid in medium; 5 μM peptide, 20-22 h pre-incubation then 3 h with 0.1 nM isoproterenol; isoproterenol alone = 100%
Method: The effect of the peptides on fatty acid metabolism can be assessed using an assay to monitor free fatty acid levels produced by cultured cells such as mouse adipocytes. Peptide arrays were initially prepared as 5 mM stock in DMSO and diluted to 0.5 mM in H2O; peptides were used at a final concentration of 5 μM (0.1% DMSO). Calculations for peptide concentrations based on approximate molecular weight of 2000 Daltons. […] Mouse 3T3-L1 cells purchased from ZenBio (Research Triangle Park, NC) were seeded at 3,000 cells per well in 96-well plates in Pre-adipocyte Medium (Zen-Bio) and grown to confluence at 37° C. in a humidified atmosphere of 5% CO2/95% air. Two days after confluence, cells were placed in Adipocyte Differentiation Medium (Zen-Bio) and cultured for three additional days at 37° C. in a humidified atmosphere of 5% CO2/95% air. The culture medium was then replaced with Adipocyte Maintenance Medium (Zen-Bio) and the cells maintained for an additional 9 days at 37° C. in a humidified atmosphere of 5% CO2/95% air with partial medium replacement every other day. Following 12 days of differentiation, medium was replaced Adipocyte Maintenance Medium without insulin and the cultures placed at 37° C. in a humidified atmosphere of 5% CO2/95% air. On day 13 of differentiation, test peptides were added directly to each well (without replacing the medium) at a final concentration of 5 μM in 0.1% DMSO and incubated for 20-22 hours at 37° C. in a humidified atmosphere of 5% CO2/95% air. […] Cells were incubated for 3 hours in Assay Buffer (Zen-Bio) at 37° C. in a humidified atmosphere of 5% CO2/95% air. Following 3 h incubation, conditioned medium from each well was transferred to a fresh 96-well plate. Free fatty acid concentrations in the medium were determined using a Free Fatty Acid Assay kit (Zen-Bio) according to the manufacturer's instructions; absorbance was measured using a Cytation 3 plate reader at 540 nm (BioTek, Winooski, Vt.). Treatment with 0.1 nM isoproterenol alone was used as the free fatty acid level stimulatory control. Absorbance values were expressed as percent control activity relative to 0.1 nM isoproterenol alone treated cells, 100%. The relative standard deviation of the isoproterenol control was <10%. Insulin at 0.25 nM was used as a potent control for decreasing free fatty acid levels. […] Data presented are representative values from 2 independent experiments with each data point performed in triplicate in each independent experiment.

[2] = system: H4-IIE Cells; assay: Glucose production in cultured H4-IIE cells; assay type: cell-based, rat; conditions: glucose concentration in medium relative to untreated cells; 5 μM peptide, 24 h
Method: The effect of the peptides on glucose homeostasis can be assessed using an assay to monitor glucose production by cultured cells such as rat hepatocytes. Peptide arrays were initially prepared as 5 mM stock in DMSO and diluted to 0.5 mM in H2O; peptides were used at a final concentration of 5 μM (0.1% DMSO). Calculations for peptide concentrations based on approximate molecular weight of 2000 Daltons. H4-IIE rat hepatic cell line was purchased from American Type Culture Collection (Manassas, Va.). H4-IIE cells were seeded in standard medium (DMEM/high glucose+10% Fetal Bovine Serum+antibiotics) at 100,000 cells/well on 96-well plates and allowed to adhere overnight at 37° C. in a humidified atmosphere of 5% CO2/95% air. 24 h after seeding, the medium was removed, cells were rinsed with glucose free DMEM, and the medium replaced with Glucose Production Medium (glucose free DMEM+2 mM sodium pyruvate+10 mM sodium lactate+antibiotics). The cultures were placed at 37° C. in a humidified atmosphere of 5% CO2/95% air overnight. The next morning, the medium was removed and fresh Glucose Production Medium containing compounds was added; 5 uM peptide or 0.5-1 nM insulin as a potent inhibitor of glucose production. Cells were incubated for 24 h at 37° C. in a humidified atmosphere of 5% CO2/95% air. Following 24 h incubation, conditioned medium from each well was transferred to a fresh 96-well plate. Glucose concentrations in the medium were determined using a Glucose Assay kit (Abcam; Cambridge, Mass.) according to the manufacturer's instructions; absorbance measured using a Cytation 3 plate reader at 570 nm (BioTek, Winooski, Vt.). Untreated cells were used as reference for maximal glucose production. Absorbance values were expressed as percent control activity relative to untreated treated cells for 5 μM peptide. The relative standard deviation from plate to plate of untreated control was <25%. […] Glucose levels for 0.5-1 nM insulin treatment were <5% of the untreated control value. Data are presented as representative values from 2-3 independent experiments with each data point performed in triplicate in each independent experiment.

[3] = system: C2C12 Cells; assay: Glucose utilization in cultured C2C12 cells (myotubes); assay type: cell-based, mouse; conditions: glucose concentration in medium relative to untreated cells; 5 μM peptide, 22 h
Method: The effect of the peptides on glucose homeostasis can be assessed using an assay to monitor glucose utilization by cultured cells such as mouse myotubes. Peptide arrays were initially prepared as 5 mM stock in DMSO and diluted to 0.5 mM in H2O; peptides were used at a final concentration of 5 μM (0.1% DMSO). Calculations for peptide concentrations based on approximate molecular weight of 2000 Daltons. C2C12 mouse muscle cell line was purchased from Millipore Sigma (Saint Louis, Mo.). C2C12 cells were seeded in standard medium (DMEM/low glucose (1 g/L)+10% Fetal Bovine Serum+antibiotics) at 7,500 cells/well on 96-well plates and grown to confluence at 37° C. in a humidified atmosphere of 5% CO2/95% air. Three days after plating the medium was removed and with Differentiation Medium (DMEM/low glucose (1 g/L)+2% Horse Serum+antibiotics) added. The cultures were placed at 37° C. in a humidified atmosphere of 5% CO2/95% air for 5 days with partially replacement of medium daily. After 5 days of differentiation, the medium was removed from myotube cultures and replaced with Assay Medium (DMEM/low glucose (1 g/L)+antibiotics). Culture were placed at 37° C. in a humidified atmosphere of 5% CO2/95% air for 5 h. Following the 5 h incubation the medium was removed and fresh Assay Medium containing compounds was added; 5 μM peptide or 1 mM metformin as a potent stimulator of glucose utilization. Cells were incubated for 22 h at 37° C. in a humidified atmosphere of 5% CO2/95% air. Following 22 h incubation, conditioned medium from each well was transferred to a fresh 96-well plate. Glucose concentrations in the medium were determined using a Glucose Assay kit (Abcam; Cambridge, Mass.) according to the manufacturer's instructions; absorbance measured using a Cytation 3 plate reader at 570 nm (BioTek, Winooski, Vt.). Untreated cells were used as reference for basal glucose utilization. Absorbance values were expressed as percent control activity relative to untreated treated cells for 5 μM peptide. The relative standard deviation from plate to plate of untreated control was <10%. […] Data presented are representative values from 2-3 independent experiments with each data point performed in triplicate in each independent experiment.

Substance	Percent of Isoproterenol Control Activity [1] [%]	Percent of Control Activity [2] [%]	Percent of Control Activity [3] [%]
24 (MFKLSFYFYVV) [compound 24]	92	96	94
25 (MFLVGWWGMV) [compound 25]	91	94	97
26 (MGACQGGSDESN) [compound 26]	93	97	99
27 (MGCDDNVVDVVVT) [compound 27]	87	100	95
28 (MGCSGSSVSQCYRVHTPQTKMPNAW) [compound 28]	105	121	100
29 (MGDCAVCDA) [compound 29]	90	106	109
30 (MGEGLEENPTNPITKPTLN) [compound 30]	98	102	102
31 (MGEVGLLWLGRI) [compound 31]	78	101	107
32 (MGGEWGMGVWTWGCFLVWM) [compound 32]	94	100	108
33 (MGGGVLLGLQ) [compound 33]	103	100	111
35 (MGGRWGLGWWRAG) [compound 35]	98	100	108
36 (MGLAAVCVCWVGWAGVVLM) [compound 36]	103	101	106
37 (MGLLEWLLCWHLLGRIINWWA) [compound 37]	106	103	109
38 (MGLWLVCWVL) [compound 38]	103	111	108
39 (MGNIIRAWCGEGCL) [compound 39]	99	114	107
40 (MGSPPPAGSKKVVL) [compound 40]	95	109	109
41 (MGSSRINPDPSPS) [compound 41]	99	108	109
42 (MGSSRLAVLCPPLHGQVNFTG) [compound 42]	106	112	107
43 (MGVGMEWGLLLRRGR) [compound 43]	103	112	101
44 (MGVKFFTLST) [compound 44]	112	103	103
45 (MHGELPWVVN) [compound 45]	98	107	108
46 (MHHMKHPIIC) [compound 46]	98	106	104
47 (MHKHYYNKHPHHYNLP) [compound 47]	96	107	103
48 (MHKRLSPIYYSHRYLPDKRL) [compound 48]	91	101	104
49 (MHLVFSSGGYARDSIA) [compound 49]	87	104	108
50 (MHQSCKPEMKTFFQGQI) [compound 50]	100	106	99

— patent US20220332774A1, “THERAPEUTIC MITOCHONDRIAL PEPTIDES” (priority 2019, published 2022)
